From ChEMBL document CHEMBL1201862, “PubChem BioAssay data set” (2004)
Where “and” joins values, the source holds several entries; their conditions need not be identical. Equal entries are not always repeated.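 Protocol summary: plate cells (96-well), add compound at 5 concentrations, incubate 48 h, interpolate endpoints linearly. The concentration for 50% growth inhibition is given as GI50.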 Calls of active or inactive are those of the source. Cut-off read from the data, not from the text of the source: active = GI50 up to about 1.1 µM and inactive = higher.

Columns and labels:
Experiment in all cases: NCI tumour cell line growth inhibition, 48 h
SK-MEL-5 = test system: SK-MEL-5
SW-620 = test system: SW-620
IGROV-1 = test system: IGROV-1
MDA-MB-231 = test system: MDA-MB-231
EKVX = test system: EKVX
SK-MEL-28 = test system: SK-MEL-28
RXF 393 = test system: RXF 393
NCI-H226 = test system: NCI-H226
HCT-15 = test system: HCT-15
OVCAR-5 = test system: OVCAR-5
MDA-MB-435 = test system: MDA-MB-435
RPMI-8226 = test system: RPMI-8226
OVCAR-4 = test system: OVCAR-4
UACC-257 = test system: UACC-257
BT-549 = test system: BT-549
SF-539 = test system: SF-539
COLO 205 = test system: COLO 205
Hs-578T = test system: Hs-578T
U-251 = test system: U-251
PC-3 = test system: PC-3
SF-268 = test system: SF-268
HOP-92 = test system: HOP-92
T47D = test system: T47D
OVCAR-3 = test system: OVCAR-3
TK-10 = test system: TK-10
MDA-N = test system: MDA-N
DU-145 = test system: DU-145
SK-MEL-2 = test system: SK-MEL-2
KM12 = test system: KM12
HT-29 = test system: HT-29
K562 = test system: K562
NCI-H460 = test system: NCI-H460
SN12C = test system: SN12C
HCT-116 = test system: HCT-116
786-0 = test system: 786-0
HOP-62 = test system: HOP-62
OVCAR-8 = test system: OVCAR-8
A549 = test system: A549
SF-295 = test system: SF-295
A498 = test system: A498
MOLT-4 = test system: MOLT-4
UACC-62 = test system: UACC-62
LOX IMVI = test system: LOX IMVI
SNB-75 = test system: SNB-75
M14 = test system: M14
SR = test system: SR
ACHN = test system: ACHN
CAKI-1 = test system: CAKI-1
SNB-19 = test system: SNB-19
MCF7 = test system: MCF7
UO-31 = test system: UO-31
NCI/ADR-RES = test system: NCI/ADR-RES
CCRF-CEM = test system: CCRF-CEM
HCC 2998 = test system: HCC 2998
NCI-H23 = test system: NCI-H23

How did the GI50 (SK-MEL-5) turn out when CCCCCCCCCCCCCCCCOP(=O)(O)OP(=O)(O)OCC1OC(n2ccc(N)nc2=O)C(O)C1O (stereo not given) was run?
Its GI50 is > 100 µM (inactive) and 53 µM (inactive).

And the GI50 (SW-620)?
The GI50 was > 100 µM (inactive) and > 95.7 µM (inactive).

What about the GI50 (IGROV-1) of the same compound?
The GI50 was > 100 µM (inactive) and > 89.7 µM (inactive).

What about the GI50 (MDA-MB-231) of the same compound?
Its GI50 is > 76.2 µM (inactive).

What about the GI50 (EKVX) of the same compound?
The GI50 was > 100 µM (inactive).

And the GI50 (SK-MEL-28)?
The GI50 was > 100 µM (inactive).

And the GI50 (RXF 393)?
The GI50 was 58.2 µM (inactive).

What about the GI50 (NCI-H226) of the same compound?
The GI50 was 89.3 µM (inactive).

What about the GI50 (HCT-15) of the same compound?
Its GI50 is > 100 µM and 98.2 µM.

And the GI50 (OVCAR-5)?
The GI50 was > 100 µM (inactive) and > 61.9 µM (inactive).

And the GI50 (MDA-MB-435)?
Its GI50 is > 100 µM (inactive).

What about the GI50 (RPMI-8226) of the same compound?
Its GI50 is > 100 µM (inactive).

And the GI50 (OVCAR-4)?
The GI50 was > 100 µM (inactive).

What about the GI50 (UACC-257) of the same compound?
The GI50 was > 100 µM (inactive) and > 96.6 µM (inactive).

And the GI50 (BT-549)?
Its GI50 is > 93.3 µM (inactive).

What about the GI50 (SF-539) of the same compound?
Its GI50 is > 91 µM (inactive).

And the GI50 (COLO 205)?
The GI50 was > 100 µM (inactive).

And the GI50 (Hs-578T)?
Its GI50 is > 91.6 µM (inactive).

What about the GI50 (U-251) of the same compound?
Its GI50 is > 100 µM (inactive) and > 76.7 µM (inactive).

What about the GI50 (PC-3) of the same compound?
The GI50 was 54.6 µM (inactive).

And the GI50 (SF-268)?
Its GI50 is > 100 µM (inactive).

What about the GI50 (HOP-92) of the same compound?
The GI50 was > 100 µM (inactive) and 57.1 µM (inactive).

What about the GI50 (T47D) of the same compound?
Its GI50 is > 74 µM (inactive).

What about the GI50 (OVCAR-3) of the same compound?
Its GI50 is > 100 µM (inactive).

And the GI50 (TK-10)?
The GI50 was > 100 µM (inactive).

What about the GI50 (MDA-N) of the same compound?
Its GI50 is > 100 µM (inactive).

What about the GI50 (DU-145) of the same compound?
Its GI50 is > 100 µM (inactive) and 58.2 µM (inactive).

What about the GI50 (SK-MEL-2) of the same compound?
Its GI50 is > 100 µM (inactive).

And the GI50 (KM12)?
Its GI50 is > 100 µM (inactive).

And the GI50 (HT-29)?
Its GI50 is 51.3 µM (inactive).

Which GI50 (SK-MEL-5) does the source give for C[C@]12CC[C@H]3[C@@H](CCC4=CC(=O)C=C[C@@]43O)[C@@H]1CCC2=O here?
The GI50 was 82 µM (inactive).

And the GI50 (K562)?
The GI50 was 83.9 µM (inactive).

And the GI50 (NCI-H460)?
The GI50 was > 100 µM (inactive).

And the GI50 (SW-620)?
The GI50 was > 100 µM (inactive).

And the GI50 (IGROV-1)?
Its GI50 is 94 µM (inactive).

And the GI50 (MDA-MB-231)?
Its GI50 is > 100 µM (inactive).

And the GI50 (SN12C)?
The GI50 was > 100 µM (inactive).

And the GI50 (HCT-116)?
The GI50 was > 100 µM (inactive).

And the GI50 (786-0)?
Its GI50 is > 100 µM (inactive).

And the GI50 (EKVX)?
The GI50 was 70.8 µM (inactive).

And the GI50 (HOP-62)?
Its GI50 is > 100 µM (inactive).

And the GI50 (OVCAR-8)?
Its GI50 is 81.1 µM (inactive).

What about the GI50 (SK-MEL-28) of the same compound?
The GI50 was > 100 µM (inactive).

What about the GI50 (RXF 393) of the same compound?
The GI50 was > 100 µM (inactive).

What about the GI50 (NCI-H226) of the same compound?
The GI50 was 69.8 µM (inactive).

What about the GI50 (HCT-15) of the same compound?
The GI50 was 56 µM.

And the GI50 (OVCAR-5)?
The GI50 was > 100 µM (inactive).

What about the GI50 (MDA-MB-435) of the same compound?
The GI50 was > 100 µM (inactive).

What about the GI50 (A549) of the same compound?
The GI50 was 62.1 µM (inactive).

And the GI50 (RPMI-8226)?
The GI50 was > 100 µM (inactive).

What about the GI50 (UACC-257) of the same compound?
The GI50 was > 100 µM (inactive).

What about the GI50 (SF-295) of the same compound?
The GI50 was > 100 µM (inactive).

What about the GI50 (BT-549) of the same compound?
Its GI50 is 55.2 µM (inactive).

And the GI50 (SF-539)?
The GI50 was > 100 µM (inactive).

And the GI50 (COLO 205)?
The GI50 was > 100 µM (inactive).

What about the GI50 (A498) of the same compound?
Its GI50 is > 100 µM (inactive).

And the GI50 (MOLT-4)?
Its GI50 is 27.2 µM (inactive).

And the GI50 (UACC-62)?
The GI50 was 60.1 µM (inactive).

What about the GI50 (LOX IMVI) of the same compound?
The GI50 was 33.6 µM (inactive).

What about the GI50 (SNB-75) of the same compound?
The GI50 was > 100 µM (inactive).

What about the GI50 (M14) of the same compound?
The GI50 was > 100 µM (inactive).

And the GI50 (SR)?
Its GI50 is 74.3 µM (inactive).

What about the GI50 (ACHN) of the same compound?
The GI50 was > 100 µM (inactive).

And the GI50 (U-251)?
The GI50 was > 100 µM (inactive).

And the GI50 (PC-3)?
Its GI50 is > 100 µM (inactive).

And the GI50 (HOP-92)?
Its GI50 is 27.9 µM (inactive).

What about the GI50 (T47D) of the same compound?
Its GI50 is > 100 µM (inactive).

What about the GI50 (CAKI-1) of the same compound?
The GI50 was > 100 µM (inactive).

What about the GI50 (OVCAR-3) of the same compound?
Its GI50 is > 100 µM (inactive).

What about the GI50 (SNB-19) of the same compound?
The GI50 was > 100 µM (inactive).

And the GI50 (MCF7)?
Its GI50 is > 100 µM (inactive).

And the GI50 (MDA-N)?
Its GI50 is > 100 µM (inactive).

And the GI50 (DU-145)?
The GI50 was > 100 µM (inactive).

And the GI50 (SK-MEL-2)?
The GI50 was 77.4 µM (inactive).

What about the GI50 (KM12) of the same compound?
The GI50 was > 100 µM (inactive).

What about the GI50 (UO-31) of the same compound?
Its GI50 is > 100 µM (inactive).

What about the GI50 (NCI/ADR-RES) of the same compound?
Its GI50 is 78.3 µM (inactive).

What about the GI50 (CCRF-CEM) of the same compound?
The GI50 was 26.4 µM (inactive).

And the GI50 (HCC 2998)?
The GI50 was > 100 µM (inactive).

What about the GI50 (NCI-H23) of the same compound?
The GI50 was 51.5 µM (inactive).
